In US4191688A, “Amides of leurosine, leuroformine, desacetylleurosine and desacetylleuroformine” (Eli Lilly and Company, priority 1978, dated 1980):
Values joined by “and” are separate entries in the source; they are usually repeats but may differ in a detail not shown here. Equal values may be shown once. Read-outs that look alike come from different tables or passages of the source.

Columns and labels:
[1] = system: experimental malignancies; settings: animals; cited from earlier work
tumor = settings: Owellen 1975; Cullinan 1975; cited from earlier work
P1534 murine leukemia = settings: Hargrove, Lloydia 1964, cited from earlier work
Gardner lymphosarcoma = assay: Activity versus Gardner Lymphosarcoma in mice; type: in vivo; settings: 9 days, usually intraperitoneal
Description: The following table--Table 1--gives the results of experiments in which mice bearing transplanted Gardner lymphosarcoma were treated successfully with a compound of this invention. In the table, column 1 gives the name of the compound; column 2, the dose level and column 3, the percent inhibition of tumor growth.

[2] = Stability on standing in air; type: physicochemical; settings: upon standing in air
pKa titration = type: physicochemical; settings: for pKa: 66 percent dmf, in 66 percent DMF
Description: A reaction mixture containing 450 mg. of leurosine, 15 ml. of tetrahydrofurane (THF), 8 ml. of anhydrous hydrazine, and 6 ml. of methanol were heated in a sealed glass bomb for 3 days at 50° C. The bomb was opened, the solvents removed in vacuo, and the resulting residue comprising 4-desacetylleurosine C-3 carboxhydrazide formed in the above reaction, was dissolved in methylene dichloride. The methylene dichloride solution was washed with water and dried. Removal of the solvent in vacuo yielded 4-desacetylleurosine C-3 carboxhydrazide as a residue shown by TLC to contain trace quantities of leurosine and of 4-desacetylleurosine. Pure 4-desacetylleurosine C-3 carboxhydrazide (1-spot material) was prepared by chromatographing the residue over silica using 1:1:1 methylenedichloride/ethyl acetate/methanol as the eluant. Fractions shown by TLC to contain 4-desacetylleurosine C-3 carboxhydrazide were combined.
Titration; pKa at 5.3, 7.0

P388 leukemia = assay: Activity against P388 leukemia in mice; type: in vivo; settings: 3 days apart
[3] = titration, free base, solvent not stated

In the case of CC[C@@H]1C[C@@H]2CN(CCc3c([nH]c4ccccc34)[C@@](C(=O)OC)(c3cc4c(cc3OC)N(C)[C@H]3[C@@](O)(C(=O)OC)[C@H](OC(C)=O)[C@]5(CC)C=CCN6CC[C@]43[C@@H]65)C2)C1 [deoxy VLB "A"], the “activity in the treatment of experimental malignancies” value (“activity in the treatment” for short) [1] is given as “active”.
For CCC1(O)CC2CN(CCc3c([nH]c4ccccc34)C(C(=O)OC)(c3cc4c(cc3OC)N(C)C3C(O)(C(=O)OC)C(O)C5(CC)C=CCN6CCC43C65)C2)C1 (stereo not shown) [4-desacetyl VLB], the anti-tumor activity (tumor) is listed as “active anti-tumor agent”, the toxicity (P1534 murine leukemia) is listed as “toxic material” and the “in vivo chemotherapeutic activity” value (P1534 murine leukemia; P1534 murine leukemia system) is listed as “little in vivo chemotherapeutic activity”.
For CCC12CN3CCc4c([nH]c5ccccc45)C(C(=O)OC)(c4cc5c(cc4OC)N(C)C4C(O)(C(N)=O)C(O)C6(CC)C=CCN7CCC54C76)CC(C3)C1O2 (stereo not shown) [4-desacetylleurosine C-3 carboxamine, 4-Desacetylleurosine C-3 Carboxamide], the “Percent Inhibition of tumor growth” value (Gardner lymphosarcoma; 3 mg/kg per day) was 23%, the “Percent Inhibition of tumor growth” value (Gardner lymphosarcoma; 6 mg/kg per day) was 100% and the “Toxicity (printed in Percent Inhibition column)” value (Gardner lymphosarcoma; 12 mg/kg per day) was “Toxic”.
In the case of CCC1(O)CC2CN(CCc3c([nH]c4ccccc34)C(C(=O)OC)(c3cc4c(cc3OC)N(C)C3C(O)(C(=O)OC)C(OC(C)=O)C5(CC)C=CCN6CCC43C65)C2)C1 (stereo not shown) [vincaleukoblastine], the “activity in the treatment” value [1] is listed as “active”.
For CC[C@]12CN3CCc4c([nH]c5ccccc45)[C@@](C(=O)OC)(c4cc5c(cc4OC)N(C)[C@H]4[C@@](O)(C(=O)OC)[C@H](OC(C)=O)[C@]6(CC)C=CCN7CC[C@]54[C@@H]76)C[C@H](C3)[C@H]1O2 [leurosine], the “activity in the treatment” value [1] is given as “active” and the auto-oxidation [2] is given as “auto-oxidizes to a 5'-hydroxy derivative”.
In the case of CCC12CN3CCc4c([nH]c5ccccc45)C(C(=O)OC)(c4cc5c(cc4OC)N(C)C4C(O)(C(=O)NC)C(O)C6(CC)C=CCN7CCC54C76)CC(C3)C1O2 (stereo not shown) [4-Desacetylleurosine C-3 N-Methyl Carboxamide], the “Percent Inhibition of tumor growth” value (Gardner lymphosarcoma; 3 mg/kg per day) is reported as 33%, the “Percent Inhibition of tumor growth” value (Gardner lymphosarcoma; 6 mg/kg per day) is reported as 100% and the “Toxicity (printed in Percent Inhibition column)” value (Gardner lymphosarcoma; 12 mg/kg per day) is reported as “Toxic”.
For CCC1(O)CC2CN(CCc3c([nH]c4ccccc34)C(C(=O)OC)(c3cc4c(cc3OC)N(C=O)C3C(O)(C(=O)OC)C(OC(C)=O)C5(CC)C=CCN6CCC43C65)C2)C1 (stereo not shown) [leurocristine], the “activity in the treatment” value [1] is given as “active”.
In the case of CCC12CN3CCc4c([nH]c5ccccc45)C(C(=O)OC)(c4cc5c(cc4OC)N(C)C4C(O)(C(=O)NCCO)C(O)C6(CC)C=CCN7CCC54C76)CC(C3)C1O2 (stereo not drawn) [4-Desacetylleurosine C-3 N-(β-hydroxyethyl)carboxamide], the “Percent Inhibition of tumor growth” value (Gardner lymphosarcoma; 6 mg/kg per day) is reported as 100% and the “Percent Inhibition of tumor growth” value (Gardner lymphosarcoma; 12 mg/kg per day) is reported as 100% and 98%.
For CC[C@@]1(O)CN2CCc3c([nH]c4ccccc34)[C@@](C(=O)OC)(c3cc4c(cc3OC)N(C)[C@@H]3[C@]45CCN4CC=C[C@@](CC)(C[C@]3(O)C(=O)OC)[C@H]45)C[C@@H](C2)C1O (stereo partly shown) [4-desacetoxy-3'-hydroxyvinblastine], the “activity in the treatment” value [1] is listed as “active”.
In the case of CC[C@]1(O)C[C@@H]2CN(CCc3c([nH]c4ccccc34)[C@@](C(=O)OC)(c3cc4c(cc3OC)N(C)[C@@H]3[C@]45CCN4CC=C[C@@](CC)(C[C@]3(O)C(=O)OC)[C@H]45)C2)C1 [4-desacetoxy vinblastine], the “activity in the treatment” value [1] is given as “active”.
In the case of CCC12CN3CCc4c([nH]c5ccccc45)C(C(=O)OC)(c4cc5c(cc4OC)N(C)C4C(O)(C(=O)NCCSSCCNC(=O)C6(O)C(O)C7(CC)C=CCN8CCC9(c%10cc(C%11(C(=O)OC)CC%12CN(CCc%13c%11[nH]c%11ccccc%13%11)CC%11(CC)OC%12%11)c(OC)cc%10N(C)C69)C87)C(O)C6(CC)C=CCN7CCC54C76)CC(C3)C1O2 (stereo not drawn) [Bis[β-(4-desacetylleurosine C-3 carboxamido)ethyl]disulfide], the “pKa (first)” value (pKa titration; [3]) is reported as 5.3 and the “pKa (second)” value (pKa titration; [3]) is reported as 7.0.
With CCC12CN3CCc4c([nH]c5ccccc45)C(C(=O)OC)(c4cc5c(cc4OC)N(C)C4C(O)(C(=O)NN)C(O)C6(CC)C=CCN7CCC54C76)CC(C3)C1O2 (stereo not shown) [4-desacetylleurosine C-3 carboxhydrazide, 4-Desacetylleurosine C-3 Carboxhydrazide] the pKa (pKa titration; read-out: pKa (first)) was 5.32 and the pKa (pKa titration; read-out: pKa (second)) was 7.12.
In the case of CCC12CN3CCc4c([nH]c5ccccc45)C(C(=O)OC)(c4cc5c(cc4OC)N(C)C4C(O)(C(=O)NCCSSCCNC(=O)C6(O)C(O)C7(CC)C=CCN8CCC9(c%10cc(C%11(C(=O)OC)CC%12CN(CCc%13c%11[nH]c%11ccccc%13%11)CC%11(CC)OC%12%11)c(OC)cc%10N(C)C69)C87)C(O)C6(CC)C=CCN7CCC54C76)CC(C3)C1O2 (stereo not drawn) [Bis[β-(4-desacetylleurosine C-3 carboxamide)ethyl]disulfide disulfate], the “prolongation of survival time” value (P388 leukemia; 15 mg/kg on three occasions) is reported as 55% and the “prolongation of survival time” value (P388 leukemia; 30 mg/kg on three occasions) is reported as 46%.
For CCC1(O)CN2CCc3c([nH]c4ccccc34)C(C(=O)OC)(c3cc4c(cc3OC)N(C)C3C(O)(C(=O)OC)C(OC(C)=O)C5(CC)C=CCN6CCC43C65)CC(O)(C2)C1 (stereo not shown) [leurocolombine], the “activity in the treatment” value [1] is listed as “active”.
With CCC12CN3CCc4c([nH]c5ccccc45)C(C(=O)OC)(c4cc5c(cc4OC)N(C=O)C4C(O)(C(N)=O)C(O)C6(CC)C=CCN7CCC54C76)CC(C3)C1O2 (stereo not shown) [4-desacetylleuroformine C-3 carboxamide, 4-Desacetylleuroformine C-3 Carboxamide] the “Percent Inhibition of tumor growth” value (Gardner lymphosarcoma; 12 mg/kg per day) was 39%.
In the case of CCC1(O)CN2CCc3c([nH]c4ccccc34)C(C(=O)OC)(c3cc4c(cc3OC)N(C)C3C(O)(C(=O)OC)C(OC(C)=O)C5(CC)C=CCN6CCC43C65)CC(C2)C1O (stereo not shown) [vincadioline], the “activity in the treatment” value [1] is given as “active”.
For CCC12CN3CCc4c([nH]c5ccccc45)C(C(=O)OC)(c4cc5c(cc4OC)N(C=O)C4C(O)(C(=O)OC)C(OC(C)=O)C6(CC)C=CCN7CCC54C76)CC(C3)C1O2 (stereo not shown) [leuroformine], the “activity in the treatment” value [1] is given as “active”.
